Earlier results in patent US8470863B2, “Derivatives and analogs of chroman as functionally selective ALPHA2C adrenoreceptor agonists” (Merck Sharp & Dohme, Corp., priority 2007, dated 2013).

Test system: Coloboma mice
Conditions: mice mutated to exhibit spontaneous hyperactivity; Bruno et al. 2006

COC(=O)[C@@H]1[C@H]2C[C@H]3c4[nH]c5ccccc5c4CCN3C[C@@H]2CC[C@@H]1O [yohimbine]
Effect on hyperactivity of Coloboma mice: ameliorated hyperactivity
